Tests used:
[1] = target: T1, 20S core with 19S, 11S, tRpt5 or tPA200; test: Activation of 20S core ChT-L activity by α face ligands (19S, 11S, tRpt5, tPA200); format: biochemical, human
T1 construct: purchased Enzo LifeSciences (20S, 11S); Boston Biochemicals (19S complex)
Experimental: (§1) Human purified proteasome complexes were purchased from Enzo LifeSciences or Boston Biochemicals (19S complex). BODIPY-casein (Invitrogen/Molecular Probes) was used as a model protein substrate, with increasing fluorescence of BODIPY labeled peptide products of degradation monitored for up to 8 hours at 37° C. The peptidase activity of the enzyme was measured as arbitrary intensity units of the released fluorescent group 7-amino-4-methylcoumarin (AMC) from peptide substrates, as described. The common substrates specific for the three kinds of active sites: succinyl-LeuLeuValTyr-7-amido-4-methylcoumarin (Suc-LLVY-MCA; for the ChT-L activity; Bachem), butoxycarbonyl-LeuArgArg-MCA (BocLRR-MCA; for T-L; Bachem) and carbobenzoxy-LeuLeuGlu-MCA (CbzLLE-MCA; for PGPH; Enzo Life Sciences International, Inc.) were used at 100 μM final concentrations, unless stated otherwise (Gaczynska and Osmulski, 2005). Proteasome substrates, rapamycin, its derivatives, and competing peptides were stocked in DMSO and diluted 100-fold in the reaction mixtures. The Rpt5 and PA200 C-terminal peptides were synthesized in the Departmental Peptide Synthesis Core using the standard SPPS chemistry. To activate the latent 20S proteasome, 0.005% (final concentration) of sodium dodecyl sulfate (SDS) was used. The reactions were carried out in 96 well plates, with 2.3 nM proteasome and other components as indicated dissolved in 50 mM Tris-HCl buffer (pH 8.0) and incubated at 37° C. for up to 1 hour. The fluorescence of products was monitored every 2 minutes with a Fluoroskan Ascent plate reader. Reaction rates were calculated from smoothed linear segment of kinetic curves using OriginPro 8.6 (OriginLabs, Northampton, Mass.). For the determination of an inhibition type, at least six distinct substrate concentrations and two inhibitor concentrations were used. The kinetic parameters of inhibition were analyzed in terms of the Michaelis-Menten formalism using the enzyme kinetic module of SigmaPlot v.12 (Systat Software, Inc, San Jose, Calif.) to perform the respective calculations.
De novo assembly of 19S from subunits is a complex process assisted by chaperones. In vitro, and likely also in cells, the 26S can also be reconstructed from 20S and the already-assembled 19S particle in the presence of ATP (Smith et al., 2005). Enhancement of the peptidase activities of the core proteasome is an established test for efficiency of the in vitro reconstruction. […] In contrast, a pretreatment of 20S with 5 μM rapamycin before adding ATP and 19S totally abrogated the activation, leaving the proteasome almost 40% inhibited instead (FIG. 6).

[2] = target: T2, human 20S proteasome, ChT-L peptidase; test: ChT-L peptidase activity of purified human 20S proteasome (Suc-LLVY-MCA); format: biochemical; conditions: for IC50: latent human 20S proteasome
T2 construct: purchased Enzo LifeSciences
Experimental: as §1, with “The common substrates specific for the three kinds of active sites: succinyl-LeuLeuValTyr-7-amido-4-methylcoumarin (Suc-LLVY-MCA; for the ChT-L activity; Bachem), butoxycarbonyl-LeuArgArg-MCA (BocLRR-MCA; for T-L; Bachem) and carbobenzoxy-LeuLeuGlu-MCA (CbzLLE-MCA; for PGPH; Enzo Life Sciences International, Inc.) were used at 100 μM final concentrations, unless stated otherwise (Gaczynska and Osmulski, 2005).” left out, “The reactions were carried out in 96 well plates, with 2.3 nM proteasome and other components as indicated dissolved in 50 mM Tris-HCl buffer (pH 8.0) and incubated at 37° C. for up to 1 hour.” left out, “calculations. […]” for “calculations.”
The in vitro assay for testing the ChT-L peptidase activity of the purified human 20S proteasome was performed as described above.

[3] = target: T3, human 20S proteasome, PGPH peptidase; test: PGPH peptidase activity of purified human 20S proteasome (CbzLLE-MCA); format: biochemical; conditions: for IC50: latent human 20S proteasome
T3 construct: purchased Enzo LifeSciences
Experimental: as §1
(§2) IC50 values (a drug concentration causing 50% inhibition of the indicated enzymatic activity) were calculated for ChT-L and PGPH peptidases. Kd (dissociation constant) and Bmax (maximal activation effect achieved; in % above the control activity) values were calculated for the T-L peptidase. Mean±SD from n=2 or 3 experiments, or data from representative experiments set in duplicates or triplicates, are presented in the table. All three peptidase activities changed by no more than ±20%, without a concentration-dependent trend, upon treatment with up to 10 μM of rapamycin unrelated mTOR inhibitors PI-103 or NVP-BEZ235, in two independent experiments.

[4] = target: T4, human 20S proteasome, T-L peptidase; test: T-L peptidase activity of purified human 20S proteasome (BocLRR-MCA); format: biochemical; conditions: for Kd: activation of T-L peptidase; for Bmax [%]: T-L: maximal activation effect, % above the control activity
T4 construct: purchased Enzo LifeSciences
Experimental: as §1, §2

20S proteasome α face = test system: T5, 20S proteasome α face; test: AFM imaging of open/closed conformers of 20S proteasome α face; set-up: species or system human; conditions: 10 μM compound
T5 construct: purchased Enzo LifeSciences
Experimental: AFM imaging of the 20S proteasomes were performed as previously described, in tapping (oscillating) mode in liquid (Osmulski et al., 2009 and Gaczynska and Osmulski, 2011). In short, 3 μL of proteasome preparations diluted to nanomolar concentration were deposited on a freshly cleaved muscovite mica surface. After 2 min incubation allowing electrostatic attachment of the protein particles to mica the droplet was overlaid with 30 microL of 50 mM Tris-HCl buffer (pH 7.0) and mounted in the wet chamber of a MultiMode NanoScope Ma (Bruker Corp.). Oxide-sharpened silicon nitride tips on cantilevers with a nominal spring constant 0.32 N/m (Bruker Corp.) were used to image 1 μm^2 fields in the height mode, with a scan rate of 3.05 Hz. The excitation frequency was manually tuned to 9-10 kHz, with a drive voltage of 200-500 mV and a relatively high set point (1.6 V to 1.9 V) to assure tapping with low, non-destructive force. […] As the inventors established previously, such resolution was sufficient to detect distinct conformations of the α face, covered by six scan lines. Multiple fields were scanned for each sample to collect images of hundreds of particles. Selected fields were repeatedly scanned to monitor changes in topography of the same particles for prolonged time. Inhibitors and the SucLLVY-MCA substrate were diluted in 10 μL of the imaging buffer and directly injected into the chamber. Raw images are presented, with a standard plain-fit and flattening (NanoScope software v.5.12) used as the only processing tools. For display purposes the brightness and contrast of the images was adjusted with the Nanoscope software or with Adobe Photoshop (Adobe Systems Inc.), and outlier scan lines were occasionally manually removed (Nanoscope software). Top view (“standing”, rounded) proteasomes were distinguished from the minor population of side-view (“lying”, rectangular) particles as described, by comparison of their length—to width ratios (Osmulski et al., 2009). The dimensions of particles were approximated and a shape of the α face in top-view proteasomes was judged with the help of a section tool in the Nanoscope v.5.12 or SPIP v.6.02 software (Image Metrology).
For this purpose, the inventors used the noninvasive tapping mode atomic force microscopy (AFM) in liquid, the imaging technique suitable for analysis of surface topography of macromolecules in their native state with a nanometer-scale practical resolution. The inventors established before that AFM imaging is a useful tool for studying structural dynamics of the 20S α face (Osmulski et al., 2009, Gaczynska et al., 2003; Gaczynska et al., 2011). They acquired and analyzed images of hundreds of single native, fully active 20S molecules. The majority of particles were in top-view (“standing”) position conveniently allowing for imaging of their α faces. […] Following previous extensive studies, the inventors refer to the two forms as “closed-gate” and “open-gate” proteasomes, respectively (Osmulski et al., 2009). As described before, the inventors used the shape of sections carried out in four directions through the top portion of the surface topography of the α ring to distinguish between the two forms. In short, the particle was classified as closed if all four sections were cone-shaped. In contrast, the particle was classified as open if all sections presented a dip surrounded by a rim (FIG. 5A) (Osmulski, et al., 2009). The same particles imaged in consecutive scans were able to assume either closed or open conformations, however the cone-shaped particles were always more abundant than crater-shaped, and accounted for about three-quarters of the imaged molecules (FIG. 5B). Addition of rapamycin to the imaged particles remarkably changed the partition of forms. […]

Row | IC50 [2] | IC50 [3] | Kd [4] | Bmax [%]: T-L [4] | Compound | other results
1 |  |  |  |  | 11S: 11S proteasome activator complex PA28/REG | increase of ChT-L activity by protein complex ([1]; 1:1 molar ratio with 20S): 8 fold
2 | > 20 µM | 0.93 ± 0.04 µM | 1.14 µM | 257% | C=CC[C@@H]1/C=C(\C)C[C@H](C)C[C@H](OC)[C@H]2O[C@@](O)(C(=O)C(=O)N3CCCC[C@H]3C(=O)O[C@H](/C(C)=C/[C@@H]3CC[C@@H](O)[C@H](OC)C3)[C@H](C)[C@@H](O)CC1=O)[C@H](C)C[C@@H]2OC [FK-506] | lowering of activation by tRpt5 ([1]; 10 μM derivative, 10 μM tRpt5): about 30%; inhibition of proteasome with or without tPA200 ([1]; 10 μM derivative, presence or absence of 10 μM tPA200): about 40%
3 |  |  |  |  | Oc1cccc(-c2nc(N3CCOCC3)c3oc4ncccc4c3n2)c1 [PI-103] | closed conformers (20S proteasome α face): 74%±4%; closed conformers after substrate (20S proteasome α face; then SucLLVY-MCA 100 μM): 29%±5%; effect on activation of 20S with 19S ([1]; 5 μM): no detectable effects
4 | 2.5 ± 0.7 µM | 0.48 ± 0.11 µM | 0.07 µM | 93% | CO[C@H]1C[C@@H]2CC[C@@H](C)[C@@](O)(O2)C(=O)C(=O)N2CCCC[C@H]2C(=O)O[C@H]([C@H](C)C[C@@H]2CC[C@@H](OCCO)[C@H](OC)C2)CC(=O)[C@H](C)/C=C(\C)[C@@H](O)[C@@H](OC)C(=O)[C@H](C)C[C@H](C)/C=C/C=C/C=C/1C [everolimus] | 
5 | > 20 µM | 0.57 ± 0.12 µM | 1.82 µM | 483% | CC[C@@H]1/C=C(\C)C[C@H](C)C[C@H](OC)[C@H]2O[C@@](O)(C(=O)C(=O)N3CCCC[C@H]3C(=O)O[C@H](/C(C)=C/[C@@H]3CC[C@H](Cl)[C@H](OC)C3)[C@H](C)[C@@H](O)CC1=O)[C@H](C)C[C@@H]2OC [pimecrolimus] | remaining ChT-L activity ([2]; 5 μM pimecrolimus alone): 82%; IC50 for PGPH increase as compared with rapamycin ([3]; relative to rapamycin): 40%; closed conformers (20S proteasome α face): ~40%; open conformers (20S proteasome α face): about 60%
6 | 1.9 ± 0.2 µM | 0.41 ± 0.03 µM | 0.14 µM | 83% | CO[C@H]1C[C@@H]2CC[C@@H](C)[C@@](O)(O2)C(=O)C(=O)N2CCCC[C@H]2C(=O)O[C@H]([C@H](C)C[C@@H]2CC[C@@H](O)[C@H](OC)C2)CC(=O)[C@H](C)/C=C(\C)[C@@H](O)[C@@H](OC)C(=O)[C@H](C)C[C@H](C)/C=C/C=C/C=C/1C [rapamycin] | remaining ChT-L activity ([2]; 2 μM rapamycin alone): 70%; ChT-L peptidase activity ([2]; 2 μM, % of DMSO control, representative experiment): 52%; ChT-L peptidase activity after 10-fold dilution ([2]; after incubation with 2 μM, 10-fold dilution): 99%; Ki ([2]; mixed inhibition model): 490 nM; PGPH peptidase activity ([3]; 0.2 μM, % of control): 48%; PGPH peptidase activity after 10-fold dilution ([3]; after incubation with 0.2 μM, 10-fold dilution): 96%; Ki ([3]; noncompetitive inhibition): 250 nM; inhibition of ChT-L activity, 20S pretreated before ATP and 19S ([1]; 5 μM, 19S 1:1): ~40%; inhibition of proteasome in presence of tPA200 ([1]; 10 μM compound, 10 μM tPA200): 50%
7 | 2.9 ± 0.5 µM | 0.43 ± 0.11 µM | 0.11 µM | 114% | CO[C@H]1C[C@@H]2CC[C@@H](C)[C@@](O)(O2)C(=O)C(=O)N2CCCC[C@H]2C(=O)O[C@H]([C@H](C)C[C@@H]2CC[C@@H](OP(C)(C)=O)[C@H](OC)C2)CC(=O)[C@H](C)/C=C(\C)[C@@H](O)[C@@H](OC)C(=O)[C@H](C)C[C@H](C)/C=C/C=C/C=C/1C [ridaforolimus] | 
8 | 2.1 ± 0.2 µM | 0.36 ± 0.03 µM | 0.19 µM | 81% | CO[C@H]1C[C@@H]2CC[C@@H](C)[C@@](O)(O2)C(=O)C(=O)N2CCCC[C@H]2C(=O)O[C@H]([C@H](C)C[C@@H]2CC[C@@H](OC(=O)C(C)(CO)CO)[C@H](OC)C2)CC(=O)[C@H](C)/C=C(\C)[C@@H](O)[C@@H](OC)C(=O)[C@H](C)C[C@H](C)/C=C/C=C/C=C/1C [temsirolimus] | IC50 for ChT-L lower than rapamycin ([2]; relative to rapamycin): ~40%; IC50 for PGPH lower than rapamycin ([3]; relative to rapamycin): 20%

From patent US9918968B2, “Rapamycin analogs targeting proteasome function in the treatment of cancer” (THE BOARD OF REGENTS OF THE UNIVERSITY OF TEXAS SYSTEM, priority 2013, dated 2018)
